Like-named read-outs stand apart in the source and are kept apart here. Marks after values point to notes of the source that are not given here.
How the values were obtained:
[1] = Pharmacokinetic study in rats, single subcutaneous injection; settings: male, Sprague Dawley, in vivo, sc, rat
Method: The pharmacokinetic study of each polypeptide compound prepared in Example 1 was conducted using male Sprague Dawley rats. There were 3 male rats in each group. […] The dose was 50 nmol/kg, and a single subcutaneous injection was given (see Table 3 for specific peptide compounds). After administration, plasma was collected on the specified days and time points, and the concentration of each peptide compound in the plasma was detected by LC-MS/MS method. The pharmacokinetic parameters were obtained based on the concentration data, which were used to describe the pharmacokinetic properties of the peptide in rats after subcutaneous injection. Table 3: Summary of pharmacokinetic parameters of some triple-target peptides in rats

[2] = biological target: T1, GIPR (Homo sapiens, UniProt P48546); test: In vitro cell activity, cAMP production in HEK293 cells expressing GIPR; format: cell-based
T1 construct: expressed in transfected cells; host or cells: HEK293 (HEK293-GIPR)
T1 sequence (P48546 22-466): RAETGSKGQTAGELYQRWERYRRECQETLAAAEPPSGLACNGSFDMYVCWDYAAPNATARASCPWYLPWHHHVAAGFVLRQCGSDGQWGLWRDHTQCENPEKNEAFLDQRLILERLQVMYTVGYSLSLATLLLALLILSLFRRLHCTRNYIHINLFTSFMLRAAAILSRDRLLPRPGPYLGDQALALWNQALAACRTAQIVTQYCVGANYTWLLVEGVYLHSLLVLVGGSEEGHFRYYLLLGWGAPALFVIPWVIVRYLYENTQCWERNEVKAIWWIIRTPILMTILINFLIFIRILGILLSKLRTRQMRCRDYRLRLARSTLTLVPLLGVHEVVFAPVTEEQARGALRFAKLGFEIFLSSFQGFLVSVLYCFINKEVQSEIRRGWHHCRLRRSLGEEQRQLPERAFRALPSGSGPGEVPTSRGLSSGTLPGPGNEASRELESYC
In short: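 cAMP accumulation is quantified by homogeneous TR-FRET (cAMP-d2 plus anti-cAMP cryptate) in GIPR-expressing HEK293 cells seeded from a 4×10^5 cells/mL suspension and treated with compound. The signal ratio is plotted against concentration and fitted to a four-parameter curve to give EC50.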

[3] = biological target: T2, GCGR (Homo sapiens, UniProt P47871); test: In vitro cell activity, cAMP production in HEK293 cells expressing GCGR; format: cell-based
T2 construct: expressed in transfected cells; host or cells: HEK293 (HEK293-GCGR)
In short: (§1)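 Assay format: cells at 4×10^5 cells/mL, cAMP sensed by d2/cryptate FRET pair, dual-wavelength read at 665 and 620 nm. Potency expressed as EC50 from nonlinear fitting.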

[4] = Glucose tolerance assessment in normal C57BL/6 mice (Example 5); format: in vivo; settings: 3 nmol/kg s.c. single dose, 24 h after administration; for Blood glucose level (mM) 15 min: 15 min after 2 g/kg glucose i.p.; for Blood glucose level (mM) 30 min: 30 min after 2 g/kg glucose i.p.; for Blood glucose level (mM) 60 min: 60 min after 2 g/kg glucose i.p.; for Blood glucose level (mM) 90 min: 90 min after 2 g/kg glucose i.p.; for Blood glucose level (mM) 0 min: basal before 2 g/kg glucose i.p.; for AUC0-90 min: blood glucose AUC, 2 g/kg glucose i.p.
In short: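 Normal C57BL/6 mice given a single dose, fasted 12 h starting 12 h post-dose, then challenged with 2 g/kg glucose i.p. Tail-vein glucose measured at baseline and 15, 30, 60, 90 min. AUC0~90min calculated from the glucose–time curve per dose group.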

[5] = biological target: T3, GLP-1R (Homo sapiens, UniProt P43220); test: In vitro cell activity, cAMP production in HEK293 cells expressing GLP-1R; format: cell-based
T3 construct: expressed in transfected cells; host or cells: HEK293 (HEK293-GLP-1R)
In short: as §1

[6] = Glucose tolerance assessment in normal C57BL/6 mice (Example 4); format: in vivo
In short: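 Twelve hours after a single administration, mice were fasted 12 h and then given 2 g/kg glucose i.p. Tail-vein blood glucose was measured at baseline and at 15, 30, 60 and 90 min. AUC0–90min was calculated per dose group at 24 h post-dose.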

[7] = 50 nmol/kg single subcutaneous injection, plasma
[8] = 50 nmol/kg single subcutaneous injection, plasma, read-out: T1/2 (converted)
[9] = 50 nmol/kg single subcutaneous injection, plasma, read-out: Tmax

T3 sequence (P43220 24-463, species assumed): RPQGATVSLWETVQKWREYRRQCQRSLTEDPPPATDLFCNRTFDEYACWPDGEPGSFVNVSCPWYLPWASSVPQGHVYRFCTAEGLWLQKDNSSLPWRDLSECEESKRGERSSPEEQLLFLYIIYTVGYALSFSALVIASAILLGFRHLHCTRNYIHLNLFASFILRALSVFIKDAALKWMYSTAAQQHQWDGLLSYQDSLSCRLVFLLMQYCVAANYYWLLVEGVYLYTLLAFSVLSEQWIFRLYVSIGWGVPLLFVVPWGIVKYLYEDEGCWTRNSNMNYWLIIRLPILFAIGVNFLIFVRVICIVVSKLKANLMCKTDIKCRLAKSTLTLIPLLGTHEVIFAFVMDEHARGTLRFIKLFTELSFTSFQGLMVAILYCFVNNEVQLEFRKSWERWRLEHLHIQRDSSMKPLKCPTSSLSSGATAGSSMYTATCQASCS
T2 sequence (P47871 26-477, species assumed): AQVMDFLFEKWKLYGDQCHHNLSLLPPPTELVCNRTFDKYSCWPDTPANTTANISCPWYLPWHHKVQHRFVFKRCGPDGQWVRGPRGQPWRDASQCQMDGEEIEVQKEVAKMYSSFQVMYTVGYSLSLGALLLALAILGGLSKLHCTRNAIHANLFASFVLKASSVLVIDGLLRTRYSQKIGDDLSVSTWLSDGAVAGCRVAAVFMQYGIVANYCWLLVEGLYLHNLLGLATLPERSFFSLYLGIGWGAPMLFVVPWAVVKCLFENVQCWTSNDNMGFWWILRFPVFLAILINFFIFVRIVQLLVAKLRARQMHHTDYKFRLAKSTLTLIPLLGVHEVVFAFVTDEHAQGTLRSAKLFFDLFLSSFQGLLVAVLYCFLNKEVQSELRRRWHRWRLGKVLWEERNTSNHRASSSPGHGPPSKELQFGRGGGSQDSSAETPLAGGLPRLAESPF

CC[C@H](C)[C@H](NC(=O)[C@H](Cc1ccccc1)NC(=O)[C@H](C)NC(=O)[C@H](CCCNC(=N)N)NC(=O)[C@H](CCC(N)=O)NC(=O)[C@H](CCCNC(=N)N)NC(=O)[C@H](CCCCNC(=O)COCCOCCNC(=O)CC[C@H](NC(=O)CCCCCCCCCCCCCCCCC(=O)O)C(=O)O)NC(=O)[C@H](CCC(=O)O)NC(=O)[C@H](CC(=O)O)NC(=O)[C@H](CC(C)C)NC(=O)[C@H](CC(C)C)NC(=O)[C@@H](NC(=O)[C@H](CO)NC(=O)[C@H](Cc1ccc(O)cc1)NC(=O)[C@H](CC(=O)O)NC(=O)[C@H](CO)NC(=O)[C@@H](NC(=O)[C@](C)(Cc1ccccc1F)NC(=O)[C@@H](NC(=O)CNC(=O)[C@H](Cc1c[nH]cn1)NC(=O)C(C)(C)NC(=O)[C@@H](N)Cc1ccc(O)cc1)[C@@H](C)O)[C@@H](C)O)[C@@H](C)CC)C(=O)N[C@@H](CCC(=O)O)C(=O)N[C@@H](Cc1ccc(O)cc1)C(=O)N[C@@H](CC(C)C)C(=O)N[C@@H](CC(C)C)C(=O)N[C@@H](C)C(=O)NCC(=O)NCC(=O)N1CCC[C@H]1C(=O)N[C@@H](CO)C(=O)N[C@@H](CO)C(=O)NCC(=O)N[C@@H](C)C(=O)N1CCC[C@H]1C(=O)N1CCC[C@H]1C(=O)N1CCC[C@H]1C(=O)N[C@@H](CO)C(=O)O [HEC-PT119]
AUC(0-inf) [1, 7]: 43800 ± 10700 ng·h/mL
AUC(0-t) [1, 7]: 43500 ± 10700 ng·h/mL
Cmax [1, 7]: 974 ± 248 ng/mL
half-life [1, 8]: 16 ± 1.6 h
Tmax [1, 9]: 19 ± 9.2 h
EC50 [2]: 0.0484 nM
EC50 [3]: 0.266 nM
Blood glucose level (mM) 15 min [4]: 14.0 ± 2.2 mM
Blood glucose level (mM) 30 min [4]: 10.8 ± 1.8 mM
Blood glucose level (mM) 60 min [4]: 7.8 ± 0.7 mM
Blood glucose level (mM) 90 min [4]: 6.7 ± 0.7 mM
Blood glucose level (mM) 0 min [4]: 4.1 ± 0.4 mM
AUC0-90 min [4]: 817.4±95.1^a
EC50 [5]: 0.189 nM

CC[C@H](C)[C@H](NC(=O)[C@H](Cc1ccccc1)NC(=O)[C@H](CCC(=O)O)NC(=O)[C@H](CCCNC(=N)N)NC(=O)[C@H](CCC(N)=O)NC(=O)[C@H](CCCNC(=N)N)NC(=O)[C@H](CCCCNC(=O)COCCOCCNC(=O)CC[C@H](NC(=O)CCCCCCCCCCCCCCCCCCC(=O)O)C(=O)O)NC(=O)[C@H](CCC(=O)O)NC(=O)[C@H](CC(=O)O)NC(=O)[C@H](CC(C)C)NC(=O)[C@H](CC(C)C)NC(=O)[C@@H](NC(=O)[C@H](CO)NC(=O)[C@H](Cc1ccc(O)cc1)NC(=O)[C@H](CC(=O)O)NC(=O)[C@H](CO)NC(=O)[C@@H](NC(=O)[C@](C)(Cc1ccccc1F)NC(=O)[C@@H](NC(=O)CNC(=O)[C@H](Cc1c[nH]cn1)NC(=O)C(C)(C)NC(=O)[C@@H](N)Cc1ccc(O)cc1)[C@@H](C)O)[C@@H](C)O)[C@@H](C)CC)C(=O)N[C@@H](CCC(=O)O)C(=O)N[C@@H](Cc1c[nH]c2ccccc12)C(=O)N[C@@H](CC(C)C)C(=O)N[C@@H](CC(C)C)C(=O)N[C@@H](C)C(=O)NCC(=O)NCC(=O)N1CCC[C@H]1C(=O)N[C@@H](CO)C(=O)N[C@@H](CO)C(=O)NCC(=O)N[C@@H](C)C(=O)N1CCC[C@H]1C(=O)N1CCC[C@H]1C(=O)N1CCC[C@H]1C(=O)N[C@@H](CO)C(=O)O [HEC-PT96]
AUC(0-inf) [1, 7]: 40900 ± 1990 ng·h/mL
AUC(0-t) [1, 7]: 40300 ± 1930 ng·h/mL
Cmax [1, 7]: 840 ± 41.4 ng/mL
half-life [1, 8]: 17 ± 0.65 h
Tmax [1, 9]: 25 ± 2.3 h
EC50 [2]: 0.149 nM
EC50 [3]: 0.192 nM
Blood glucose level (mM) 15 min [4]: 13.0 ± 2.9 mM
Blood glucose level (mM) 30 min [4]: 10.8 ± 3.2 mM
Blood glucose level (mM) 60 min [4]: 7.9 ± 1.6 mM
Blood glucose level (mM) 90 min [4]: 6.2 ± 1.3 mM
Blood glucose level (mM) 0 min [4]: 4.2 ± 0.6 mM
AUC0-90 min [4]: 798.9±146.0^a
EC50 [5]: 0.158 nM

CC[C@H](C)[C@H](NC(=O)[C@H](Cc1ccccc1)NC(=O)[C@H](C)NC(=O)[C@H](CCC(N)=O)NC(=O)[C@H](CCC(N)=O)NC(=O)[C@H](CCCNC(=N)N)NC(=O)[C@H](CCCCNC(=O)COCCOCCNC(=O)CC[C@H](NC(=O)CCCCCCCCCCCCCCCCCCC(=O)O)C(=O)O)NC(=O)[C@H](CCC(=O)O)NC(=O)[C@H](CC(=O)O)NC(=O)[C@H](CC(C)C)NC(=O)[C@H](CC(C)C)NC(=O)[C@@H](NC(=O)[C@H](CO)NC(=O)[C@H](Cc1ccc(O)cc1)NC(=O)[C@H](CC(=O)O)NC(=O)[C@H](CO)NC(=O)[C@@H](NC(=O)[C@](C)(Cc1ccccc1F)NC(=O)[C@@H](NC(=O)CNC(=O)[C@H](Cc1c[nH]cn1)NC(=O)C(C)(C)NC(=O)[C@@H](N)Cc1ccc(O)cc1)[C@@H](C)O)[C@@H](C)O)[C@@H](C)CC)C(=O)N[C@@H](CCC(=O)O)C(=O)N[C@@H](Cc1ccc(O)cc1)C(=O)N[C@@H](CC(C)C)C(=O)N[C@@H](CC(C)C)C(=O)N[C@@H](CCC(=O)O)C(=O)NCC(=O)NCC(=O)N1CCC[C@H]1C(=O)N[C@@H](CO)C(=O)N[C@@H](CO)C(=O)NCC(=O)N[C@@H](C)C(=O)N1CCC[C@H]1C(=O)N1CCC[C@H]1C(=O)N1CCC[C@H]1C(=O)N[C@@H](CO)C(=O)O [HEC-PT93]
Tmax [1]: 25 ± 2.3 h
half-life ([1]; 50 nmol/kg): 19 ± 1.2 h
EC50 ([2]; HEK293-GIPR cells, cAMP, read-out: GIPR (EC50)): 0.159 nM
EC50 ([3]; HEK293-GCGR cells, cAMP, read-out: GCGR (EC50)): 0.354 nM
EC50 ([5]; HEK293-GLP-1R cells, cAMP, read-out: GLP-1R (EC50)): 1.17 nM

CC[C@H](C)[C@H](NC(=O)[C@H](Cc1ccccc1)NC(=O)[C@H](C)NC(=O)[C@H](CCC(N)=O)NC(=O)[C@H](CCC(N)=O)NC(=O)[C@H](CCCNC(=N)N)NC(=O)[C@H](CCCCNC(=O)COCCOCCNC(=O)CC[C@H](NC(=O)CCCCCCCCCCCCCCCCC(=O)O)C(=O)O)NC(=O)[C@H](CCC(=O)O)NC(=O)[C@H](CC(=O)O)NC(=O)[C@H](CC(C)C)NC(=O)[C@H](CC(C)C)NC(=O)[C@@H](NC(=O)[C@H](CO)NC(=O)[C@H](Cc1ccc(O)cc1)NC(=O)[C@H](CC(=O)O)NC(=O)[C@H](CO)NC(=O)[C@@H](NC(=O)[C@](C)(Cc1ccccc1F)NC(=O)[C@@H](NC(=O)CNC(=O)[C@H](CCC(N)=O)NC(=O)C(C)(C)NC(=O)[C@@H](N)Cc1ccc(O)cc1)[C@@H](C)O)[C@@H](C)O)[C@@H](C)CC)C(=O)N[C@@H](CCC(=O)O)C(=O)N[C@@H](Cc1ccc(O)cc1)C(=O)N[C@@H](CC(C)C)C(=O)N[C@@H](CC(C)C)C(=O)N[C@@H](CCC(=O)O)C(=O)NCC(=O)NCC(=O)N1CCC[C@H]1C(=O)N[C@@H](CO)C(=O)N[C@@H](CO)C(=O)NCC(=O)N[C@@H](C)C(=O)N1CCC[C@H]1C(=O)N1CCC[C@H]1C(=O)N1CCC[C@H]1C(=O)N[C@@H](CO)C(=O)O [HEC-PT82]
AUC(0-inf) [1, 7]: 29400 ± 3050 ng·h/mL
AUC(0-t) [1, 7]: 29100 ± 3030 ng·h/mL
Cmax [1, 7]: 836 ± 217 ng/mL
half-life [1, 8]: 17 ± 0.8 h
Tmax [1, 9]: 8.7 ± 2.3 h
EC50 [2]: 0.0831 nM
EC50 [3]: 0.615 nM
Blood glucose level (mM) 15 min ([6]; 3 nmol/kg s.c. single dose, 24 h after administration, 15 min after 2 g/kg glucose i.p.): 12.4 ± 4.3 mM
Blood glucose level (mM) 30 min ([6]; 3 nmol/kg s.c. single dose, 24 h after administration, 30 min after 2 g/kg glucose i.p.): 7.6 ± 1.5 mM
Blood glucose level (mM) 60 min ([6]; 3 nmol/kg s.c. single dose, 24 h after administration, 60 min after 2 g/kg glucose i.p.): 6.9 ± 0.8 mM
Blood glucose level (mM) 90 min ([6]; 3 nmol/kg s.c. single dose, 24 h after administration, 90 min after 2 g/kg glucose i.p.): 6.6 ± 0.6 mM
Blood glucose level (mM) 0 min ([6]; 3 nmol/kg s.c. single dose, 24 h after administration, basal before 2 g/kg glucose i.p.): 3.8 ± 0.6 mM
improvement of glucose tolerance compared with LY3298176 ([6]; 24 hours after a single administration, 3 nmol/kg): more effective in improving glucose tolerance than the positive control LY3298176
AUC0-90 min ([6]; blood glucose AUC, 3 nmol/kg s.c. single dose, 24 h after administration, 2 g/kg glucose i.p.): 691.8±116.4^a
EC50 [5]: 0.36 nM

Source: EP4596574A1, “GLP-1/GCG/GIP TRIPLE-RECEPTOR AGONIST AND USE THEREOF” (Sunshine Lake Pharma Co., Ltd., priority 2022, dated 2024)
